Experiments:
[1] = background description; cited from earlier work
[2] = co-micronized with sugar alcohols, from entacapone, levodopa, carbidopa formulation vs not co-micronized
[3] = background description; cited from earlier work; remark: listed apart in the source

Compound | Solubility in water [1] | Change in percent drug release of entacapone [2] | Biopharmaceutics Classification system class [3]
C[C@@](Cc1ccc(O)c(O)c1)(NN)C(=O)O [Carbidopa, (−)-L-(α-hydrazino-(α-methyl-β-(3,4-dihydroxybenzene)propanoic acid monohydrate] | slightly soluble |  | 
CCN(CC)C(=O)/C(C#N)=C/c1cc(O)c(O)c([N+](=O)[O-])c1 [Entacapone, (E)-2-cyano-3-(3,4-dihydroxy-5-nitrophenyl)-N,N-diethyl-2-propenamide] |  | significant increase | class IV
N[C@@H](Cc1ccc(O)c(O)c1)C(=O)O [Levodopa, (−)-L-α-amino-β-(3,4-dihydroxybenzene) propanoic acid] | slightly soluble |  | 

Source: patent US9089485B2, “Pharmaceutical compositions of entacapone, levodopa and carbidopa with improved bioavailability” (Wockhardt Ltd., priority 2008, dated 2015)
